Measurements reported in BindingDB's records for doi:10.1016/j.bmcl.2008.01.127 (Johnson & Johnson Pharmaceutical Research and Development, 2008).

Assay: Antagonist activity at rabbit CXCR2 by neutrophil chemotaxis assay

Row | SMILES | IC50
1 | O=C(NCCc1c(-c2ccc(F)cc2)[nH]c2ccc(Br)cc12)NS(=O)(=O)c1ccccc1 [1-(2-(5-bromo-2-(4-fluorophenyl)-1H-indol-3-yl)ethyl)-3-(phenylsulfonyl)urea] | 1700 nM
2 | CS(=O)(=O)NC(=O)CCCc1c(-c2ccc(F)cc2)[nH]c2ccc(C#N)cc12 [4-(5-cyano-2-(4-fluorophenyl)-1H-indol-3-yl)-N-(methylsulfonyl)butanamide] | 2100 nM
3 | CNS(=O)(=O)NC(=O)CCCc1c(-c2ccc(F)cc2)[nH]c2ccc(C#N)cc12 [4-[5-cyano-2-(4-fluorophenyl)-1H-indol-3-yl]-N-[(methylamino)sulfonyl]butanamide] | 1300 nM
4 | CS(=O)(=O)NC(=O)NCCc1c(-c2ccc(F)cc2)[nH]c2ccc(Br)cc12 [1-(2-(5-bromo-2-(4-fluorophenyl)-1H-indol-3-yl)ethyl)-3-(methylsulfonyl)urea] | 5800 nM
5 | N#Cc1ccc2[nH]c(-c3ccc(F)cc3)c(CCCC(=O)NS(=O)(=O)C(F)(F)F)c2c1 [4-(5-cyano-2-(4-fluorophenyl)-1H-indol-3-yl)-N-(trifluoromethylsulfonyl)butanamide] | 3000 nM
6 | CN(C)S(=O)(=O)NC(=O)CCCc1c(-c2ccc(F)cc2)[nH]c2ccc(C#N)cc12 [4-[5-cyano-2-(4-fluorophenyl)-1H-indol-3-yl]-N-(dimethylsulfamoyl)butanamide] | 700 nM
